In PubChem BioAssay AID330 (DTP/NCI, 2004):
Several values for one entry are separate records, joined by “and”; a condition that tells them apart may be missing. Equal values may be shown once. Inconclusive results and toxic doses are left out. How the source made its calls: active means survival T/C of 150% or more; inactive means T/C below 125% in these data.

Tested on: P388 leukemia ip, CD2F1 mice, survival T/C
Assay: NCI In Vivo Anticancer Drug Screen. Data for tumor model P388 Leukemia (intraperitoneal) in CD2F1 (CDF1) mice
Conditions: endpoint: median survival time, higher = longer survival
Method in brief: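 Mice carrying the transplanted tumor received test compound or vehicle. Survival was recorded in each group, and the value is the treated-group measurement divided by that of the vehicle-treated control group.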

[1] = dose: 3.13 mg/kg/injection, schedule: Q01DX009 (ip), vehicle: saline with Tween-80
[2] = dose: 6.25 mg/kg/injection, schedule: Q01DX009 (ip), vehicle: saline with Tween-80
[3] = dose: 12.5 mg/kg/injection, schedule: Q01DX009 (ip), vehicle: saline with Tween-80
[4] = dose: 25.0 mg/kg/injection, schedule: Q01DX009 (ip), vehicle: saline with Tween-80
[5] = dose: 50.0 mg/kg/injection, schedule: Q01DX005 (ip), vehicle: saline with Tween-80
[6] = dose: 100.0 mg/kg/injection, schedule: Q01DX005 (ip), vehicle: saline with Tween-80
[7] = dose: 200.0 mg/kg/injection, schedule: Q01DX005 (ip), vehicle: saline with Tween-80
[8] = dose: 50.0 mg/kg/injection, schedule: Q01DX009 (ip), vehicle: saline
[9] = dose: 100.0 mg/kg/injection, schedule: Q01DX009 (ip), vehicle: saline
[10] = dose: 100.0 mg/kg/injection, schedule: Q04DX002 (ip), vehicle: Klucel (hydroxypropylcellulose) (HPC)
[11] = dose: 400.0 mg/kg/injection, schedule: Q04DX002 (ip), vehicle: Klucel (hydroxypropylcellulose) (HPC)
[12] = dose: 60.0 mg/kg/injection, schedule: Q01DX005 (ip), vehicle: saline with Tween-80
[13] = dose: 120.0 mg/kg/injection, schedule: Q01DX005 (ip), vehicle: saline with Tween-80
[14] = dose: 240.0 mg/kg/injection, schedule: Q01DX005 (ip), vehicle: saline with Tween-80
[15] = dose: 100.0 mg/kg/injection, schedule: Q04DX003 (ip), vehicle: saline with Tween-80
[16] = dose: 200.0 mg/kg/injection, schedule: Q04DX003 (ip), vehicle: saline with Tween-80

Measured: T/C

O=c1oc2ccc(Cl)cc2c2c1OC(c1ccccc1)CN2 (stereo not given)
inactive: [1] 110 % of control | [2] 110 % of control | [3] 103 % of control | [4] 103 % of control

CCOC(=O)Cc1csc(=S)n1-c1ccccc1
inactive: [5] 102 % of control | [6] 102 % of control | [7] 90 % of control

CCCN(CCC)CN(CCC)CCC
inactive: [8] 106 % of control | [9] 105 % of control

C1CCNCC1.CC(=O)[C-](C(C)=O)c1ccccc1.CC(=O)[C-](C(C)=O)c1ccccc1.CC(=O)[C-](C(C)=O)c1ccccc1.CC(=O)[C-](C(C)=O)c1ccccc1.[Eu+3]
inactive: [10] 86 % of control | [11] 97 % of control

O=S1(=O)CC(c2ccccc2)=NN=C(c2ccccc2)C1
inactive: dose: 50.0 mg/kg/injection, schedule: Q01DX009 (ip), vehicle: Klucel (hydroxypropylcellulose) (HPC) 93 % of control | dose: 100.0 mg/kg/injection, schedule: Q01DX009 (ip), vehicle: Klucel (hydroxypropylcellulose) (HPC) 93 % of control | dose: 200.0 mg/kg/injection, schedule: Q01DX009 (ip), vehicle: Klucel (hydroxypropylcellulose) (HPC) 88 % of control

N=C(N)c1nn(C2OC(CO)C(O)C2O)c2nc[nH]c(=O)c12 (stereo not given)
inactive: dose: 12.5 mg/kg/injection, schedule: Q01DX005 (ip), vehicle: saline with Tween-80 121 % of control | dose: 25.0 mg/kg/injection, schedule: Q01DX005 (ip), vehicle: saline with Tween-80 124 % of control

CC(C)(C)OC(=O)NNS(=O)(=O)CCC(NC(=O)OCc1ccccc1)C(=O)OCc1ccccc1 (stereo not given)
inactive: dose: 12.5 mg/kg/injection, schedule: Q01DX009 (ip), vehicle: other 100 % of control | dose: 25.0 mg/kg/injection, schedule: Q01DX009 (ip), vehicle: other 97 % of control | dose: 50.0 mg/kg/injection, schedule: Q01DX009 (ip), vehicle: other 92 % of control | dose: 100.0 mg/kg/injection, schedule: Q01DX009 (ip), vehicle: other 88 % of control | dose: 200.0 mg/kg/injection, schedule: Q01DX009 (ip), vehicle: other 90 % of control

O=S(=O)(Nc1nccs1)c1ccc(NCc2c3ccccc3nc3cc(Cl)ccc23)cc1
inactive: [5] 88 % of control | [6] 88 % of control | [7] 97 % of control

C=Cn1c([N+](=O)[O-])cnc1/C=C/c1ccc(C(=O)N(CC)CC)cc1
inactive: dose: 100.0 mg/kg/injection, schedule: Q04DX002 (ip), vehicle: saline with Tween-80 99 % of control | dose: 200.0 mg/kg/injection, schedule: Q04DX002 (ip), vehicle: saline with Tween-80 100 % of control | dose: 400.0 mg/kg/injection, schedule: Q04DX002 (ip), vehicle: saline with Tween-80 100 % of control

COC1OC2COC(c3ccccc3)OC2C(N=Cc2ccccc2)C1O (stereo not given)
inactive: [12] 104 % of control | [13] 103 % of control | [14] 100 % of control

CC1(C)C(=O)C(C)(C)C1O
inactive: [8] 98 % of control | [9] 95 % of control | dose: 200.0 mg/kg/injection, schedule: Q01DX009 (ip), vehicle: saline 98 % of control

O=c1c2ccccc2oc2nc3ccc(Cl)cc3n12
inactive: [5] 112 % of control | [6] 101 % of control | [7] 98 % of control

O=C1SC(Nc2ccccc2)/C(=N\N=C2/C(Nc3ccccc3)SC(=O)N2Cc2ccccc2)N1Cc1ccccc1 (stereo not given)
inactive: [10] 86 % of control | dose: 200.0 mg/kg/injection, schedule: Q04DX002 (ip), vehicle: Klucel (hydroxypropylcellulose) (HPC) 94 % of control | [11] 91 % of control

OC(COc1c2ccccc2nc2ccccc12)COc1c2ccccc2nc2ccccc12
inactive: [12] 104 % of control | [13] 101 % of control | [14] 101 % of control

Cc1cc(C)cc(C(N)=O)c1
inactive: dose: 100.0 mg/kg/injection, schedule: Q04DX003 (ip), vehicle: saline 96 % of control | dose: 200.0 mg/kg/injection, schedule: Q04DX003 (ip), vehicle: saline 99 % of control

Fc1c(F)c(C(F)(F)F)c(F)c(F)c1-n1nnc(-c2ccccc2)n1
inactive: dose: 50.0 mg/kg/injection, schedule: Q01DX005 (ip), vehicle: Klucel (hydroxypropylcellulose) (HPC) 99 % of control | dose: 100.0 mg/kg/injection, schedule: Q01DX005 (ip), vehicle: Klucel (hydroxypropylcellulose) (HPC) 96 % of control | dose: 200.0 mg/kg/injection, schedule: Q01DX005 (ip), vehicle: Klucel (hydroxypropylcellulose) (HPC) 100 % of control

O=S1(=O)CC(Cl)(Cl)C1
inactive: [5] 102 % of control | [6] 109 % of control

NC(=O)N/N=C1\CCn2cccc21
inactive: [12] 92 % of control | [13] 95 % of control

Ic1ccccc1C[N+]12CN3CN(CN(C3)C1)C2
inactive: [15] 120 % of control | [16] 115 % of control

Cc1ccc(-c2cc(-c3cc(-c4ccc(C)cc4)nc(N)n3)nc(N)n2)cc1
inactive: dose: 60.0 mg/kg/injection, schedule: Q01DX005 (ip), vehicle: saline 90 % of control | dose: 120.0 mg/kg/injection, schedule: Q01DX005 (ip), vehicle: saline 96 % of control | dose: 240.0 mg/kg/injection, schedule: Q01DX005 (ip), vehicle: saline 97 % of control

C1NNCC12CNNC2
inactive: dose: 100.0 mg/kg/injection, schedule: Q04DX003 (ip), vehicle: suspension in saline 94 % of control | dose: 200.0 mg/kg/injection, schedule: Q04DX003 (ip), vehicle: suspension in saline 94 % of control | dose: 400.0 mg/kg/injection, schedule: Q04DX003 (ip), vehicle: suspension in saline 90 % of control

C[C@H]1/C(=C/C(=O)OCCN(C)C)CC[C@H]2[C@H]1C(=O)C[C@H]1C(C)(C)[C@@H](O)CC[C@]21C
inactive: dose: 3.12 mg/kg/injection, schedule: Q01DX009 (ip), vehicle: saline 101 % of control | dose: 6.25 mg/kg/injection, schedule: Q01DX009 (ip), vehicle: saline 96 % of control | dose: 12.5 mg/kg/injection, schedule: Q01DX009 (ip), vehicle: saline 100 % of control | dose: 25.0 mg/kg/injection, schedule: Q01DX009 (ip), vehicle: saline 100 % of control

COc1ccc2c(c1O)CN1CCc3cc4c(cc3C1C2)OCO4 (stereo not given)
inactive: [5] 104 % of control | [6] 110 % of control | [7] 115 % of control

O=C(O)CCC1(CCC(=O)O)OCCO1.[Ag]
inactive: dose: 9.5 mg/kg/injection, schedule: Q01DX009 (ip), vehicle: saline sonified 100 % of control | dose: 19.0 mg/kg/injection, schedule: Q01DX009 (ip), vehicle: saline sonified 109 % of control | dose: 38.0 mg/kg/injection, schedule: Q01DX009 (ip), vehicle: saline sonified 86 % of control

CC12CCC(O)CC1CCC1C2C(O)CC2(C)C1CCC2(C)O (stereo not given)
inactive: dose: 100.0 mg/kg/injection, schedule: Q04DX003 (ip), vehicle: alcohol 105 % of control | dose: 200.0 mg/kg/injection, schedule: Q04DX003 (ip), vehicle: alcohol 90 % of control | dose: 400.0 mg/kg/injection, schedule: Q04DX003 (ip), vehicle: alcohol 115 % of control

Cc1ccc(/C=N\N=C\c2ccc(C)cc2)cc1
inactive: dose: 50.0 mg/kg/injection, schedule: Q01DX009 (ip), vehicle: saline with Tween-80 100 % of control | dose: 50.0 mg/kg/injection, schedule: Q04DX003 (ip), vehicle: saline with Tween-80 91 % of control | dose: 100.0 mg/kg/injection, schedule: Q01DX009 (ip), vehicle: saline with Tween-80 90 % of control | [15] 87 % of control | dose: 200.0 mg/kg/injection, schedule: Q01DX009 (ip), vehicle: saline with Tween-80 90 % of control | [16] 91 % of control

O.Oc1ccccc1C=NCCC[N-]CCCN=Cc1ccccc1O.[Co]
inactive: [1] 102 % of control | [2] 102 % of control | [3] 123 % of control | [4] 100 % of control and 115 % of control

CCN(CC)C(=O)CCc1ccc(Cl)cc1
inactive: dose: 60.0 mg/kg/injection, schedule: Q01DX005 (ip), vehicle: Klucel (hydroxypropylcellulose) (HPC) 104 % of control | dose: 120.0 mg/kg/injection, schedule: Q01DX005 (ip), vehicle: Klucel (hydroxypropylcellulose) (HPC) 95 % of control | dose: 240.0 mg/kg/injection, schedule: Q01DX005 (ip), vehicle: Klucel (hydroxypropylcellulose) (HPC) 102 % of control
